Data as given in the supplement of paper PMC10307832.

Key:
Test in all cases: relative viability (nuclei count vs DMSO), 5 days (fraction); higher = more cells survive
NCI-H650 = tested on: NCI-H650
Procedure, shortened: (§1)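 Relative viability is defined as nuclei in treated wells over nuclei in vehicle wells. Duplicate plates were run and medians reported. Lung cancer cell lines in 1536-well plates were dosed by pin tool one day after seeding, with one drug or with a fixed anchor-drug dose plus five library-drug doses (not always all listed) in √10 steps, and nuclei were counted after 5 days.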

COR-L 105 = tested on: COR-L 105
Procedure, shortened: as §1

NCI-H2126 = tested on: NCI-H2126
Procedure, shortened: as §1

NCI-H2347 = tested on: NCI-H2347
Procedure, shortened: as §1

NCI-H661 = tested on: NCI-H661
Procedure, shortened: as §1

NCI-H520 = tested on: NCI-H520
Procedure, shortened: as §1

NCI-H2087 = tested on: NCI-H2087
Procedure, shortened: as §1

HCC-78 = tested on: HCC-78
Procedure, shortened: as §1

RERF-LC-KJ = tested on: RERF-LC-KJ
Procedure, shortened: as §1

NCI-H1915 = tested on: NCI-H1915
Procedure, shortened: as §1

201T = tested on: 201T
Procedure, shortened: as §1

NCI-H23 = tested on: NCI-H23
Procedure, shortened: as §1

PC-14 = tested on: PC-14
Procedure, shortened: as §1

LCLC-97TM1 = tested on: LCLC-97TM1
Procedure, shortened: as §1

NCI-H1666 = tested on: NCI-H1666
Procedure, shortened: as §1

H3255 = tested on: H3255
Procedure, shortened: as §1

EPLC-272H = tested on: EPLC-272H
Procedure, shortened: as §1

NCI-H647 = tested on: NCI-H647
Procedure, shortened: as §1

NCI-H2405 = tested on: NCI-H2405
Procedure, shortened: as §1

LC-2-ad = tested on: LC-2-ad
Procedure, shortened: as §1

HCC-827 = tested on: HCC-827
Procedure, shortened: as §1

What does the source list for COc1cc2nccc(Oc3ccc(NC(=O)Nc4cc(C)on4)c(Cl)c3)c2cc1OC [Tivozanib] + Cc1nc(NC(=O)N2CCC[C@H]2C(N)=O)sc1-c1ccnc(C(C)(C)C(F)(F)F)c1 [Alpelisib] (partner 2 µM)?
relative viability (NCI-H650; first compound 0.005 µM): 1.06; relative viability (NCI-H650; first compound 0.01581 µM): 1.13; relative viability (NCI-H650; first compound 0.05 µM): 1.1; relative viability (NCI-H650; first compound 0.1581 µM): 1.02; relative viability (NCI-H650; first compound 0.5 µM): 0.967; relative viability (COR-L 105; first compound 0.01581 µM): 1.2; relative viability (COR-L 105; first compound 0.05 µM): 0.933; relative viability (COR-L 105; first compound 0.1581 µM): 1.04; relative viability (COR-L 105; first compound 0.5 µM): 1.07; relative viability (NCI-H2126; first compound 0.005 µM): 0.708; relative viability (NCI-H2126; first compound 0.01581 µM): 0.757; relative viability (NCI-H2126; first compound 0.05 µM): 0.763; relative viability (NCI-H2126; first compound 0.1581 µM): 0.53; relative viability (NCI-H2126; first compound 0.5 µM): 0.734; relative viability (NCI-H2347; first compound 0.005 µM): 1.01; relative viability (NCI-H2347; first compound 0.01581 µM): 1.03; relative viability (NCI-H2347; first compound 0.05 µM): 1.03; relative viability (NCI-H2347; first compound 0.1581 µM): 1.1; relative viability (NCI-H2347; first compound 0.5 µM): 0.987; relative viability (NCI-H661; first compound 0.005 µM): 0.52; relative viability (NCI-H661; first compound 0.01581 µM): 0.713; relative viability (NCI-H661; first compound 0.05 µM): 0.609; relative viability (NCI-H661; first compound 0.1581 µM): 0.302; relative viability (NCI-H661; first compound 0.5 µM): 0.525; relative viability (NCI-H520; first compound 0.005 µM): 0.773; relative viability (NCI-H520; first compound 0.01581 µM): 0.847; relative viability (NCI-H520; first compound 0.05 µM): 1.02; relative viability (NCI-H520; first compound 0.1581 µM): 0.74; relative viability (NCI-H520; first compound 0.5 µM): 0.714; relative viability (NCI-H2087; first compound 0.005 µM): 1.04; relative viability (NCI-H2087; first compound 0.01581 µM): 1.03; relative viability (NCI-H2087; first compound 0.05 µM): 1.18; relative viability (NCI-H2087; first compound 0.1581 µM): 0.886; relative viability (NCI-H2087; first compound 0.5 µM): 1.04; relative viability (HCC-78; first compound 0.005 µM): 0.327; relative viability (HCC-78; first compound 0.01581 µM): 0.347; relative viability (HCC-78; first compound 0.05 µM): 0.315; relative viability (HCC-78; first compound 0.1581 µM): 0.248; relative viability (HCC-78; first compound 0.5 µM): 0.316; relative viability (RERF-LC-KJ; first compound 0.005 µM): 0.729; relative viability (RERF-LC-KJ; first compound 0.01581 µM): 0.757; relative viability (RERF-LC-KJ; first compound 0.05 µM): 0.965; relative viability (RERF-LC-KJ; first compound 0.1581 µM): 0.689; relative viability (RERF-LC-KJ; first compound 0.5 µM): 0.834; relative viability (NCI-H1915; first compound 0.005 µM): 1.08; relative viability (NCI-H1915; first compound 0.01581 µM): 1.04; relative viability (NCI-H1915; first compound 0.05 µM): 1.11; relative viability (NCI-H1915; first compound 0.1581 µM): 0.99; relative viability (NCI-H1915; first compound 0.5 µM): 0.961; relative viability (201T; first compound 0.005 µM): 0.993; relative viability (201T; first compound 0.01581 µM): 1; relative viability (201T; first compound 0.05 µM): 1.05; relative viability (201T; first compound 0.1581 µM): 1.02; relative viability (201T; first compound 0.5 µM): 1.08; relative viability (NCI-H23; first compound 0.005 µM): 0.735; relative viability (NCI-H23; first compound 0.01581 µM): 0.651; relative viability (NCI-H23; first compound 0.05 µM): 0.615; relative viability (NCI-H23; first compound 0.1581 µM): 0.497; relative viability (NCI-H23; first compound 0.5 µM): 0.561; relative viability (PC-14; first compound 0.005 µM): 0.89; relative viability (PC-14; first compound 0.01581 µM): 0.993; relative viability (PC-14; first compound 0.05 µM): 1.07; relative viability (PC-14; first compound 0.1581 µM): 0.911; relative viability (PC-14; first compound 0.5 µM): 0.873; relative viability (LCLC-97TM1; first compound 0.005 µM): 0.191; relative viability (LCLC-97TM1; first compound 0.01581 µM): 0.206; relative viability (LCLC-97TM1; first compound 0.1581 µM): 0.237; relative viability (LCLC-97TM1; first compound 0.5 µM): 0.247; relative viability (NCI-H1666; first compound 0.005 µM): 1; relative viability (NCI-H1666; first compound 0.01581 µM): 0.853; relative viability (NCI-H1666; first compound 0.05 µM): 1.06; relative viability (NCI-H1666; first compound 0.1581 µM): 0.965; relative viability (NCI-H1666; first compound 0.5 µM): 1.01; relative viability (H3255; first compound 0.005 µM): 0.727; relative viability (H3255; first compound 0.01581 µM): 0.716; relative viability (H3255; first compound 0.05 µM): 0.684; relative viability (H3255; first compound 0.1581 µM): 0.689; relative viability (H3255; first compound 0.5 µM): 0.615; relative viability (EPLC-272H; first compound 0.005 µM): 0.964; relative viability (EPLC-272H; first compound 0.01581 µM): 0.918; relative viability (EPLC-272H; first compound 0.05 µM): 1.05; relative viability (EPLC-272H; first compound 0.1581 µM): 0.723; relative viability (EPLC-272H; first compound 0.5 µM): 0.862; relative viability (NCI-H647; first compound 0.005 µM): 1.22; relative viability (NCI-H647; first compound 0.01581 µM): 1.17; relative viability (NCI-H647; first compound 0.05 µM): 1.1; relative viability (NCI-H647; first compound 0.1581 µM): 0.803; relative viability (NCI-H647; first compound 0.5 µM): 0.958; relative viability (NCI-H2405; first compound 0.005 µM): 0.776; relative viability (NCI-H2405; first compound 0.01581 µM): 0.878; relative viability (NCI-H2405; first compound 0.05 µM): 0.823; relative viability (NCI-H2405; first compound 0.1581 µM): 0.737; relative viability (NCI-H2405; first compound 0.5 µM): 0.641; relative viability (LC-2-ad; first compound 0.005 µM): 0.902; relative viability (LC-2-ad; first compound 0.01581 µM): 0.809; relative viability (LC-2-ad; first compound 0.05 µM): 0.8; relative viability (LC-2-ad; first compound 0.1581 µM): 0.629; relative viability (LC-2-ad; first compound 0.5 µM): 0.654; relative viability (HCC-827; first compound 0.005 µM): 0.902; relative viability (HCC-827; first compound 0.01581 µM): 0.992; relative viability (HCC-827; first compound 0.05 µM): 1.04; relative viability (HCC-827; first compound 0.1581 µM): 0.98; relative viability (HCC-827; first compound 0.5 µM): 1.02
